Results reported in ChEMBL document CHEMBL2407078, “Indole-diterpenoids with anti-H1N1 activity from the aciduric fungus Penicillium camemberti OUCMDZ-1492” (J Nat Prod, 2013).

Test system: Influenza A virus (A/Puerto Rico/8/1934(H1N1))
Test: Antiviral activity against Influenza A virus (A/Puerto Rico/8/34(H1N1)) PR/8 infected in MDCK cells assessed as protection against virus-induced cytopathogenicity after 48 hrs by crystal-violet staining-based assay
Assay type: functional, organism-based
Details: PR/8, MDCK

Row | SMILES | IC50 [µM]
1 | CC(C)(O)[C@@H]1CC[C@]2(C)[C@H](CC[C@@]3(C)[C@H]2CC[C@H]2Cc4c([nH]c5ccccc45)[C@@]23C)O1 [PASPALINE] | 77.9
2 | CC(C)=CCC[C@]1(C)[C@@H](O)CC[C@@]2(C)[C@H]1CC[C@H]1Cc3c([nH]c4ccccc34)[C@@]12C [EMINDOLE SB] | 26.2
3 | NC(=O)c1ncn([C@@H]2O[C@H](CO)[C@@H](O)[C@H]2O)n1 [RIBAVIRIN] | 113
4 | CC(O)(CO)[C@H]1O[C@H]2CC[C@@]3(C)[C@@](O)(CC[C@H]4Cc5c([nH]c6ccccc56)[C@@]43C)C2=CC1=O (some centres not stated) | 125
5 | CC(C)(O)[C@H]1O[C@H]2CC[C@@]3(C)[C@@H](CC[C@H]4Cc5c([nH]c6ccccc56)[C@@]43C)C2=CC1=O [DEHYDROXYPAXILLINE] | > 150
6 | CC(C)(O)[C@H]1O[C@H]2CC[C@@]3(C)[C@@](O)(CC[C@H]4Cc5c([nH]c6ccccc56)[C@@]43C)C2=CC1=O [PAXILLINE] | 17.7
7 | CC(C)=CCc1cc2[nH]c3c(c2cc1CC=C(C)C)C[C@@H]1CC[C@@]2(O)C4=CC(=O)[C@@H](C(C)(C)O)O[C@H]4CC[C@]2(C)[C@@]31C | 73.3
8 | CC(C)=CCC[C@](C)(O)[C@H](O)CC/C(C)=C/CC/C(C)=C/Cc1c[nH]c2ccccc12 | 34.1
9 | CC(C)=CCc1ccc2[nH]c3c(c2c1)C[C@@H]1CC[C@@]2(O)C4=CC(=O)[C@@H](C(C)(C)O)O[C@H]4CC[C@]2(C)[C@@]31C | 6.6
10 | CC(C)(O)[C@H]1O[C@H]2CC[C@@]3(C)[C@@H](CC[C@H]4Cc5c([nH]c6ccccc56)[C@@]43C)[C@]2(O)[C@H](O)[C@H]1O | 32.2
11 | CC(C)(O)[C@@H]1CC=C2[C@H](CC[C@@]3(C)[C@H]2CC[C@H]2Cc4c([nH]c5ccccc45)[C@@]23C)O1 | 28.3
12 | CC(C)(O)[C@@H]1CC[C@]2(C(=O)O)[C@H](CC[C@@]3(C)[C@H]2CC[C@H]2Cc4c([nH]c5ccccc45)[C@@]23C)O1 | 38.9
